Experimental data from ChEMBL document CHEMBL1201862, “PubChem BioAssay data set” (2004).
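Results reflect a 48-hour exposure of cells in 96-well plates to compound at five concentrations. Abbreviation: GI50, concentration required for 50% inhibition of growth.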 Calls of active or inactive are those of the source. No stated cut-off is given here; in the data, active = GI50 up to about 1.1 µM and inactive = higher.

Assays:
Experiment in all cases: DTP human tumour cell line panel, 48 h
[1] = system: A498
[2] = system: BT-549
[3] = system: CCRF-CEM
[4] = system: COLO 205
[5] = system: HCT-15
[6] = system: HL-60
[7] = system: HOP-62
[8] = system: Hs-578T
[9] = system: MCF7
[10] = system: MDA-MB-231
[11] = system: MDA-MB-435
[12] = system: RPMI-8226
[13] = system: SF-268
[14] = system: SF-295
[15] = system: SF-539
[16] = system: SN12C
[17] = system: SNB-19
[18] = system: SNB-75
[19] = system: SW-620
[20] = system: RXF 393

Compound	GI50 [1]	GI50 [2]	GI50 [3]	GI50 [4]	GI50 [5]	GI50 [6]	GI50 [7]	GI50 [8]	GI50 [9]	GI50 [10]	GI50 [11]	GI50 [12]	GI50 [13]	GI50 [14]	GI50 [15]	GI50 [16]	GI50 [17]	GI50 [18]	GI50 [19]	GI50 [20]
CN(C)CC1CCC/C(=C\c2ccc(OC(=O)c3ccc(Cl)cc3)cc2)C1=O (stereo unspecified)	7.26 µM (inactive)	2.81 µM (inactive)	0.33 µM (active)	1.97 µM (inactive)	1.57 µM	1.32 µM (inactive)	3.99 µM (inactive)	2.57 µM (inactive)	0.33 µM (active)	2.45 µM (inactive)	1.95 µM (inactive)	0.465 µM (active)	4.26 µM (inactive)	3.84 µM (inactive)	3 µM (inactive)	2.14 µM (inactive)	3.36 µM (inactive)	4.12 µM (inactive)	1.1 µM (active)	–
C[C@]12CC[C@H](O)C=C1CC[C@@H]1[C@@H]2CC[C@]2(C)C(=N/O)/C(=C/c3ccncc3)C[C@@H]12	–	20 µM (inactive)	7.96 µM (inactive)	11.7 µM (inactive)	5.19 µM	< 0.01 µM (active)	13.2 µM (inactive)	19.4 µM (inactive)	3.87 µM (inactive)	11.1 µM (inactive)	11.1 µM (inactive)	3.78 µM (inactive)	15.2 µM (inactive)	12.2 µM (inactive)	5.53 µM (inactive)	12.1 µM (inactive)	11.9 µM (inactive)	14.4 µM (inactive)	23 µM (inactive)	5.87 µM (inactive)
Cc1nn(C(=O)Cc2ccccc2)c2c1C(c1ccc(O)cc1O)SC(=N)N2 (stereo unspecified)	> 100 µM (inactive)	> 100 µM (inactive)	> 100 µM (inactive)	> 100 µM (inactive)	> 100 µM	> 100 µM (inactive)	> 100 µM (inactive)	> 100 µM (inactive)	> 100 µM (inactive)	> 100 µM (inactive)	> 100 µM (inactive)	> 100 µM (inactive)	> 100 µM (inactive)	> 100 µM (inactive)	> 100 µM (inactive)	> 100 µM (inactive)	> 100 µM (inactive)	17.2 µM (inactive)	> 100 µM (inactive)	–
O=C(O[C@@H](/C=C/c1ccccc1)P1(=O)N(Cc2ccccc2)[C@@H]2CCCC[C@H]2N1Cc1ccccc1)c1ccccc1	5.62 µM (inactive)	4.91 µM (inactive)	2.31 µM (inactive)	2 µM (inactive)	2.99 µM	2.94 µM (inactive)	6.79 µM (inactive)	8.89 µM (inactive)	3.59 µM (inactive)	2.96 µM (inactive)	3.12 µM (inactive)	2 µM (inactive)	5.06 µM (inactive)	3.55 µM (inactive)	4.68 µM (inactive)	3.18 µM (inactive)	4.54 µM (inactive)	–	3.66 µM (inactive)	–
CCOC(=O)CCC(NC(=O)Cc1ccc(Nc2nc3cc(F)c(F)cc3nc2C(=O)OCC)cc1)C(=O)OCC (stereo unspecified)	> 100 µM (inactive)	51.2 µM (inactive)	20.8 µM (inactive)	> 100 µM (inactive)	> 100 µM	21.5 µM (inactive)	> 100 µM (inactive)	40.8 µM (inactive)	88.7 µM (inactive)	41.8 µM (inactive)	> 100 µM (inactive)	–	31.3 µM (inactive)	> 100 µM (inactive)	> 100 µM (inactive)	69.2 µM (inactive)	> 100 µM (inactive)	35.2 µM (inactive)	73.6 µM (inactive)	–
CCc1nc2c(n1CC)C(=O)c1ccccc1C2=O	–	17.2 µM (inactive)	45.7 µM (inactive)	16.8 µM (inactive)	38.3 µM	32.7 µM (inactive)	42.5 µM (inactive)	67.6 µM (inactive)	49.1 µM (inactive)	16.9 µM (inactive)	18.3 µM (inactive)	> 100 µM (inactive)	69 µM (inactive)	48.1 µM (inactive)	44.4 µM (inactive)	27.8 µM (inactive)	45.6 µM (inactive)	20.7 µM (inactive)	26.7 µM (inactive)	19.8 µM (inactive)
Cc1oc2c(Cl)cc(O)c(Cl)c2c2cccc1-2	42 µM (inactive)	23.6 µM (inactive)	14.1 µM (inactive)	30.4 µM (inactive)	21.5 µM	25.8 µM (inactive)	24.2 µM (inactive)	34.8 µM (inactive)	9.73 µM (inactive)	33.6 µM (inactive)	20.1 µM (inactive)	10.4 µM (inactive)	34.9 µM (inactive)	31.6 µM (inactive)	20.1 µM (inactive)	25.9 µM (inactive)	42.8 µM (inactive)	2.83 µM (inactive)	32.5 µM (inactive)	–
Cc1c[nH]c(C(=O)O)c1-c1cccn1-c1ccc(Cl)cc1[N+](=O)[O-]	> 100 µM (inactive)	> 100 µM (inactive)	> 100 µM (inactive)	> 100 µM (inactive)	> 100 µM	–	63.2 µM (inactive)	> 100 µM (inactive)	69.7 µM (inactive)	> 100 µM (inactive)	> 100 µM (inactive)	–	> 100 µM (inactive)	73.8 µM (inactive)	> 100 µM (inactive)	> 100 µM (inactive)	–	> 100 µM (inactive)	> 100 µM (inactive)	83 µM (inactive)
CCSC1=N/C(=C\c2ccco2)C(Cl)=N1	> 100 µM (inactive)	> 100 µM (inactive)	> 100 µM (inactive)	> 100 µM (inactive)	> 100 µM	> 100 µM (inactive)	> 100 µM (inactive)	> 100 µM (inactive)	> 100 µM (inactive)	> 100 µM (inactive)	> 100 µM (inactive)	> 100 µM (inactive)	> 100 µM (inactive)	> 100 µM (inactive)	> 100 µM (inactive)	> 100 µM (inactive)	> 100 µM (inactive)	> 100 µM (inactive)	> 100 µM (inactive)	–
CCOC(=O)c1ccc(C(=O)OCC)n1-c1cc2cc(c1)CSCc1cc(cc(-n3c(C(=O)OCC)ccc3C(=O)OCC)c1)CSC2	–	> 10 µM (inactive)	> 10 µM (inactive)	> 10 µM (inactive)	> 10 µM	> 10 µM (inactive)	> 10 µM (inactive)	> 10 µM (inactive)	> 10 µM (inactive)	> 10 µM (inactive)	> 10 µM (inactive)	> 10 µM (inactive)	> 10 µM (inactive)	> 10 µM (inactive)	> 10 µM (inactive)	> 10 µM (inactive)	> 10 µM (inactive)	> 10 µM (inactive)	> 10 µM (inactive)	> 10 µM (inactive)
O=C1Nc2ccccc2C1S(=O)(=O)c1ccccc1 (stereo unspecified)	> 100 µM (inactive)	> 100 µM (inactive)	> 100 µM (inactive)	> 100 µM (inactive)	> 100 µM	–	> 100 µM (inactive)	> 100 µM (inactive)	–	> 100 µM (inactive)	> 100 µM (inactive)	> 100 µM (inactive)	> 100 µM (inactive)	> 100 µM (inactive)	–	> 100 µM (inactive)	> 100 µM (inactive)	> 100 µM (inactive)	> 100 µM (inactive)	> 100 µM (inactive)
COc1ccc(C2CC(c3c(O)ccc4ccccc34)=NN2c2ccc([N+](=O)[O-])cc2[N+](=O)[O-])cc1OC (stereo unspecified)	7.18 µM (inactive)	30 µM (inactive)	6.03 µM (inactive)	22.3 µM (inactive)	27 µM	–	21.5 µM (inactive)	19.4 µM (inactive)	17.9 µM (inactive)	20.9 µM (inactive)	24 µM (inactive)	3.87 µM (inactive)	25.4 µM (inactive)	12.2 µM (inactive)	26.1 µM (inactive)	29.8 µM (inactive)	15.3 µM (inactive)	20.7 µM (inactive)	39.9 µM (inactive)	24.4 µM (inactive)
O=C1CC(=O)NC(NN2C(=O)CSC2c2ccccc2)=N1 (stereo unspecified)	> 100 µM (inactive)	> 100 µM (inactive)	> 100 µM (inactive)	> 100 µM (inactive)	> 100 µM	–	> 100 µM (inactive)	> 100 µM (inactive)	> 100 µM (inactive)	> 100 µM (inactive)	> 100 µM (inactive)	> 100 µM (inactive)	> 100 µM (inactive)	> 100 µM (inactive)	> 100 µM (inactive)	> 100 µM (inactive)	–	30.9 µM (inactive)	> 100 µM (inactive)	> 100 µM (inactive)
COCC1OC(N2C(=O)NC(=O)[C@@H]3C=C4CCCCC4=C[C@@H]32)C(OC)C1OC (stereo partly specified)	> 100 µM (inactive)	> 100 µM (inactive)	–	–	> 100 µM	51.6 µM (inactive)	> 100 µM (inactive)	68.9 µM (inactive)	> 100 µM (inactive)	> 100 µM (inactive)	> 100 µM (inactive)	> 100 µM (inactive)	> 100 µM (inactive)	> 100 µM (inactive)	> 100 µM (inactive)	> 100 µM (inactive)	> 100 µM (inactive)	> 100 µM (inactive)	> 100 µM (inactive)	–
O=C1C=CC(=O)c2c1cc1ccccc1c2O	13.5 µM (inactive)	9.38 µM (inactive)	0.391 µM (active)	2.4 µM (inactive)	4.8 µM	0.628 µM (active)	16.7 µM (inactive)	8.22 µM (inactive)	–	2.04 µM (inactive)	6.37 µM (inactive)	2.43 µM (inactive)	8.24 µM (inactive)	17.1 µM (inactive)	11.6 µM (inactive)	12.3 µM (inactive)	19.3 µM (inactive)	18.1 µM (inactive)	1.86 µM (inactive)	2.11 µM (inactive)
